Counter-ions that a name gives are not always drawn. Where only a bound is given, the exact number is not on record here.

The target of the first test is T1, human Factor Xa (Homo sapiens, UniProt P00742).
T1 construct: containing human Factor Xa (final conc. Of 0.0003 U·ml-1)
T1 sequence (P00742 235-488 limits assumed): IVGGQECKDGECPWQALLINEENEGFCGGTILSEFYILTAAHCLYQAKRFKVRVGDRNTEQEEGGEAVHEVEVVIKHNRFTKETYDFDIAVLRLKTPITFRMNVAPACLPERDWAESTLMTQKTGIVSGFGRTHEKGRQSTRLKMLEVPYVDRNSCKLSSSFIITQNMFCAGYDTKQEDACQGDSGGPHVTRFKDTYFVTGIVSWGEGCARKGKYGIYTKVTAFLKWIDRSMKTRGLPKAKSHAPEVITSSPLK
T1 sequence (P00742 41-179 partner limits assumed): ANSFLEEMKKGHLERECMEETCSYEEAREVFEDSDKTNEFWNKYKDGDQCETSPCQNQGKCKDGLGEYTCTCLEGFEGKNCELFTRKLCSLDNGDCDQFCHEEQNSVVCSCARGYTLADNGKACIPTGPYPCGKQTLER
In words: In vitro fluorogenic assay for inhibition of Factor Xa. It is filed as biochemical. The conditions noted are these: Ki value. On the procedure: In Vitro Assay for Inhibition of Factor Xa
Compounds of the present invention were tested for their Factor Xa inhibitory activity as determined in vitro by their ability to inhibit human Factor Xa in a fluorogenic assay, using Rhodamine 110, bis-CBZ-glycylglycyl-L-arginine amide as the fluorogenic substrate. Compounds were diluted from a 10 mM stock solution in dimethylsulfoxide at appropriate concentrations. Assay was performed at room temperature using buffer consisting of: 50 mM Tris-HCl, 150 mM NaCl, 5 mM CaCl2, pH 7.4. containing human Factor Xa (final conc. Of 0.0003 U·ml-1). Compound and enzyme were preincubated for 15 min prior to addition of the substrate (final conc. of 10 μM). The reaction was stopped after 3 hrs with the addition of H-D-Phe-Pro-Arg-Chloromethylketone. […] To obtain IC50 values the data were analysed using ActivityBase® and XLfit®.
Calculation of Ki values: Ki=IC50/(1+[Substrate]/Km)
The Ki value for the above assay can be obtained by dividing the IC50 value by 1.6.
The molecule `C/C(=C\S(=O)(=O)NC1CCN(c2ccc(C(=O)N(C)Cc3ccccn3)cc2F)C1=O)c1ccc(Cl)s1` (centres unmarked) [Example 3, 4-[3-({[(1E)-2-(5-Chloro-2-thienyl)-1-propen-1-yl]sulfonyl}amino)-2-oxo-1-pyrrolidinyl]-3-fluoro-N-methyl-N-(2-pyridinylmethyl)benzamide] yielded an inhibitory constant (Ki) of less than 100 nM.

`COCCN(C)C(=O)c1ccc(N2CCC(NS(=O)(=O)/C=C(\C)c3ccc(Cl)s3)C2=O)c(F)c1` (centres unmarked) [Example 5, 4-[3-({[(1E)-2-(5-Chloro-2-thienyl)-1-propen-1-yl]sulfonyl}amino)-2-oxo-1-pyrrolidinyl]-3-fluoro-N-methyl-N-[2-(methyloxy)ethyl]benzamide] had a Ki of less than 1000 nM. With `C/C(=C\S(=O)(=O)NC1CCN(c2ccc(C(=O)N(C)CCc3cccnc3)cc2F)C1=O)c1ccc(Cl)s1` (centres unmarked) [Example 30, 4-[3-({[(1E)-2-(5-Chloro-2-thienyl)-1-propen-1-yl]sulfonyl}amino)-2-oxo-1-pyrrolidinyl]-3-fluoro-N-methyl-N-[2-(3-pyridinyl)ethyl]benzamide], the inhibitory constant (Ki) is less than 100 nM. Take `CNCCN(C)C(=O)c1ccc(N2CCC(NS(=O)(=O)/C=C(\C)c3ccc(Cl)s3)C2=O)c(F)c1` (centres unmarked) [Example 1, 4-[3-({[(1E)-2-(5-Chloro-2-thienyl)-1-propen-1-yl]sulfonyl}amino)-2-oxo-1-pyrrolidinyl]-3-fluoro-N-methyl-N-[2-(methylamino)ethyl]benzamide]: the inhibition constant Ki is less than 100 nM. In turn, `C/C(=C\S(=O)(=O)NC1CCN(c2ccc(C(=O)N(C)CCc3c[nH]cn3)cc2F)C1=O)c1ccc(Cl)s1` (centres unmarked) [Example 31, 4-[3-({[(1E)-2-(5-Chloro-2-thienyl)-1-propen-1-yl]sulfonyl}amino)-2-oxo-1-pyrrolidinyl]-3-fluoro-N-[2-(1H-imidazol-4-yl)ethyl]-N-methylbenzamide] came in with an inhibitory constant (Ki) of less than 100 nM.

The same test, now with this note: human Factor Xa, Rhodamine 110 bis-CBZ-glycylglycyl-L-arginine amide substrate 10 μM, 15 min preincubation, room temperature, pH 7.4; Ki = IC50/1.6; read-out: Ki value.
In the case of `C/C(=C\S(=O)(=O)NC1CCN(c2ccc(C(=O)N(C)CCN(C)C)cc2F)C1=O)c1ccc(Cl)s1` (centres unmarked) [Example 29, 4-[3-({[(1E)-2-(5-chloro-2-thienyl)-1-propen-1-yl]sulfonyl}amino)-2-oxo-1-pyrrolidinyl]-N-[2-(dimethylamino)ethyl]-3-fluoro-N-methylbenzamide formate], the inhibition constant (Ki) was less than 100 nM. Same read-out and setting: the same measure for `O=C(NCc1cccnc1)c1ccc(N2CCC(NS(=O)(=O)/C=C/c3ccc(Cl)s3)C2=O)c(F)c1` (centres unmarked) [Example 9, 4-[3-({[(E)-2-(5-Chloro-2-thienyl)ethenyl]sulfonyl}amino)-2-oxo-1-pyrrolidinyl]-3-fluoro-N-(3-pyridinylmethyl)benzamide]: less than 1000 nM; for `O=C(NCc1ccncc1)c1ccc(N2CCC(NS(=O)(=O)/C=C/c3ccc(Cl)s3)C2=O)c(F)c1` (centres unmarked) [Example 8, 4-[3-({[(E)-2-(5-Chloro-2-thienyl)ethenyl]sulfonyl}amino)-2-oxo-1-pyrrolidinyl]-3-fluoro-N-(4-pyridinylmethyl)benzamide]: less than 1000 nM. `CNCCN(C)C(=O)c1ccc(N2CCC(NS(=O)(=O)c3cc4ccc(Cl)cc4s3)C2=O)c(F)c1` (centres unmarked) [Example 26, 4-(3-{[(6-Chloro-1-benzothien-2-yl)sulfonyl]amino}-2-oxo-1-pyrrolidinyl)-3-fluoro-N-methyl-N-[2-(methylamino)ethyl]benzamide formate]: the Ki was less than 100 nM. Regarding `C/C(=C\S(=O)(=O)NC1CCN(c2ccc(C(=O)N(C)CCO)cc2F)C1=O)c1ccc(Cl)s1` (centres unmarked) [Example 2, 4-[3-({[(1E)-2-(5-Chloro-2-thienyl)-1-propen-1-yl]sulfonyl}amino)-2-oxo-1-pyrrolidinyl]-3-fluoro-N-(2-hydroxyethyl)-N-methylbenzamide], the Ki is less than 1000 nM. Consider `CN(CCN)C(=O)c1ccc(N2CCC(NS(=O)(=O)c3cc4ccc(Cl)cc4s3)C2=O)c(F)c1` (centres unmarked) [Example 28], for which the inhibition constant Ki was less than 1000 nM. Consider `CN(CCc1cccnc1)C(=O)c1ccc(N2CCC(NS(=O)(=O)c3cc4ccc(Cl)cc4s3)C2=O)c(F)c1` (centres unmarked) [Example 27, 4-(3-{[(6-Chloro-1-benzothien-2-yl)sulfonyl]amino}-2-oxo-1-pyrrolidinyl)-3-fluoro-N-methyl-N-[2-(3-pyridinyl)ethyl]benzamide], for which the Ki is less than 100 nM.

`CN(C)CCN(C)C(=O)c1ccc(N2CCC(NS(=O)(=O)c3cc4ccc(Cl)cc4s3)C2=O)c(F)c1` (centres unmarked) [Example 25, 4-(3-{[(6-Chloro-1-benzothien-2-yl)sulfonyl]amino}-2-oxo-1-pyrrolidinyl)-N-[2-(dimethylamino)ethyl]-3-fluoro-N-methylbenzamide formate]: the inhibitory constant (Ki) is less than 1000 nM. Still for that read-out and setting: the same measure for `C/C(=C\S(=O)(=O)NC1CCN(c2ccc(C(=O)N(C)CCS(C)(=O)=O)cc2F)C1=O)c1ccc(Cl)s1` (centres unmarked) [Example 4, 4-[3-({[(1E)-2-(5-Chloro-2-thienyl)-1-propen-1-yl]sulfonyl}amino)-2-oxo-1-pyrrolidinyl]-3-fluoro-N-methyl-N-[2-(methylsulfonyl)ethyl]benzamide]: less than 100 nM.

What is called Ki is a measure of affinity in units of concentration, obtained from inhibition or displacement.

(Values after patent US20070203206A1, “2-Pyrrolidone Derivatives And Use Thereof As Factor Xa Inhibitors” (priority 2003, published 2007).)
